Results published in the NIST ThermoML archive (doi:10.1021/je800243y).
± gives the expanded uncertainty stated by the source.

Experiment: molar heat capacity at constant pressure
Settings: 101.33 kPa, Crystal, Large sample (1 g) DSC

molar heat capacity at constant pressure (298.15 K) [J/K/mol]	molar heat capacity at constant pressure (303.15 K) [J/K/mol]	molar heat capacity at constant pressure (308.15 K) [J/K/mol]	molar heat capacity at constant pressure (313.15 K) [J/K/mol]	molar heat capacity at constant pressure (318.15 K) [J/K/mol]	molar heat capacity at constant pressure (323.15 K) [J/K/mol]	molar heat capacity at constant pressure (328.15 K) [J/K/mol]	molar heat capacity at constant pressure (333.15 K) [J/K/mol]	molar heat capacity at constant pressure (338.15 K) [J/K/mol]	molar heat capacity at constant pressure (343.15 K) [J/K/mol]	molar heat capacity at constant pressure (348.15 K) [J/K/mol]	molar heat capacity at constant pressure (353.15 K) [J/K/mol]	molar heat capacity at constant pressure (358.15 K) [J/K/mol]	molar heat capacity at constant pressure (363.15 K) [J/K/mol]	molar heat capacity at constant pressure (368.15 K) [J/K/mol]	SMILES
337.43 ± 6.8	338.14 ± 6.8	338.86 ± 6.8	339.57 ± 6.8	340.29 ± 6.8	341 ± 6.8	341.72 ± 6.8	342.43 ± 6.8	343.15 ± 6.9	343.86 ± 6.9	344.58 ± 6.9	345.29 ± 6.9	346.01 ± 6.9	346.72 ± 6.9	347.44 ± 7	O=c1[nH]c(=O)n([C@@H]2O[C@H](CO)[C@@H](O)[C@H]2O)cc1I [2,4-dihdroxy-5-iodo-1-β-D-ribofurnosylpyrimidine]
260.65 ± 5.2	263.37 ± 5.3	266.08 ± 5.3	268.8 ± 5.4	271.51 ± 5.4	274.23 ± 5.5	276.94 ± 5.5	279.66 ± 5.6	282.38 ± 5.7	285.09 ± 5.7	287.81 ± 5.8	290.52 ± 5.8	293.24 ± 5.9	295.95 ± 5.9	298.66 ± 6	O=c1[nH]c(=O)n([C@H]2C[C@H](O)[C@@H](CO)O2)cc1Br [5-bromo-2'-deoxyuridine]
276.7 ± 5.5	278.84 ± 5.6	280.97 ± 5.6	283.12 ± 5.7	285.25 ± 5.7	287.4 ± 5.8	289.53 ± 5.8	291.68 ± 5.8	293.81 ± 5.9	295.95 ± 5.9	298.09 ± 6	300.23 ± 6	302.37 ± 6	304.51 ± 6.1	306.65 ± 6.1	Cc1cn([C@H]2C[C@H](O)[C@@H](CO)O2)c(=O)[nH]c1=O [thymidine]
285.34 ± 5.7	287.61 ± 5.8	289.88 ± 5.8	292.15 ± 5.8	294.43 ± 5.9	296.69 ± 5.9	298.96 ± 6	301.22 ± 6	303.48 ± 6.1	305.76 ± 6.1	308.02 ± 6.2	310.3 ± 6.2	312.55 ± 6.2	314.82 ± 6.3	317.09 ± 6.3	O=c1[nH]c(=O)n([C@H]2C[C@H](O)[C@@H](CO)O2)cc1I [5-iodo-2'-deoxyuridine]
305.69 ± 6.1	306.16 ± 6.1	306.64 ± 6.1	307.11 ± 6.1	307.58 ± 6.2	308.05 ± 6.2	308.52 ± 6.2	308.99 ± 6.2	309.47 ± 6.2	309.94 ± 6.2	310.41 ± 6.2	310.88 ± 6.2	311.35 ± 6.2	311.82 ± 6.2	312.29 ± 6.2	O=c1[nH]c(=O)n([C@@H]2O[C@H](CO)[C@@H](O)[C@H]2O)cc1Br [5-bromouridine]
263.41 ± 5.3	266.16 ± 5.3	268.9 ± 5.4	271.65 ± 5.4	274.39 ± 5.5	277.14 ± 5.5	279.89 ± 5.6	282.63 ± 5.7	285.38 ± 5.7	288.12 ± 5.8	290.86 ± 5.8	293.6 ± 5.9	296.36 ± 5.9	299.1 ± 6	301.84 ± 6	O=c1ccn([C@H]2C[C@H](O)[C@@H](CO)O2)c(=O)[nH]1 [2'-deoxyuridine]
